The source of these data is patent US20130338178A1, “SIRTUIN MODULATORS AS INHIBITORS OF CYTOMEGALOVIRUS” (THE TRUSTEES OF PRINCETON UNIVERSITY, priority 2011, published 2013).

Like-named read-outs stand apart in the source and are kept apart here. Peptide text beside a SMILES is read from it. Bounds are passed on as bounds.

Series [1] relates to tumor necrosis factor alpha (TNFα) release. Particulars: cited from earlier work.
For another series, the system named is HCMV pUL99. Nature of the series: Late viral pUL99 expression and cytopathic effect in HCMV infected MRC5 cells. It is filed as cell-based, human cytomegalovirus. (Cytopathic effects are the visible damage that an infection or toxin causes in cultured cells.)
The target in series [2] is T1, SIRT2 (Homo sapiens, UniProt Q8IXJ6).
T1 sequence (Q8IXJ6 1-389): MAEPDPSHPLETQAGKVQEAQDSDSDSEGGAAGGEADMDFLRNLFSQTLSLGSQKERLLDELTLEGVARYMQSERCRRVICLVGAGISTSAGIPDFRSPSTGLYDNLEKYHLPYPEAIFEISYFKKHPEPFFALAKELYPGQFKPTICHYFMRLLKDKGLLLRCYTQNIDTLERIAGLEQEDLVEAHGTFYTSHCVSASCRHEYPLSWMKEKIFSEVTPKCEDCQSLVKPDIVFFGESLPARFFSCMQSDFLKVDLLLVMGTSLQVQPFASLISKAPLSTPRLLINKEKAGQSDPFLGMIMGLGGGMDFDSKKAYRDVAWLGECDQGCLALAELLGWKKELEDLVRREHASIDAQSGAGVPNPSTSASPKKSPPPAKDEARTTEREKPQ
The settings on record: cited from earlier work.

A further series addresses Sirt6 (Homo sapiens, UniProt Q8N6T7). The settings on record: cited from earlier work.
The next series addresses T2, Sirt5 (Homo sapiens, UniProt Q9NXA8).
T2 sequence (Q9NXA8 37-310): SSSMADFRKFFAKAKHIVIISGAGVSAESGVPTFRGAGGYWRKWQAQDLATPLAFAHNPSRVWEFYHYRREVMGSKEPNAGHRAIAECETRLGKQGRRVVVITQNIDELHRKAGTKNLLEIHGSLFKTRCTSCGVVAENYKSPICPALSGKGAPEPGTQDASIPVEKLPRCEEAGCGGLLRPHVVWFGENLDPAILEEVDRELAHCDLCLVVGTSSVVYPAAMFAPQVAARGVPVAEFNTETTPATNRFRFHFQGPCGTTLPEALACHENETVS
Particulars: cited from earlier work.

The next series deals with Hst2 (Saccharomyces cerevisiae, UniProt P53686). Particulars: cited from earlier work.
The target of series [3] is T3, SIRT1 (Homo sapiens, UniProt Q96EB6).
T3 sequence (Q96EB6 1-747): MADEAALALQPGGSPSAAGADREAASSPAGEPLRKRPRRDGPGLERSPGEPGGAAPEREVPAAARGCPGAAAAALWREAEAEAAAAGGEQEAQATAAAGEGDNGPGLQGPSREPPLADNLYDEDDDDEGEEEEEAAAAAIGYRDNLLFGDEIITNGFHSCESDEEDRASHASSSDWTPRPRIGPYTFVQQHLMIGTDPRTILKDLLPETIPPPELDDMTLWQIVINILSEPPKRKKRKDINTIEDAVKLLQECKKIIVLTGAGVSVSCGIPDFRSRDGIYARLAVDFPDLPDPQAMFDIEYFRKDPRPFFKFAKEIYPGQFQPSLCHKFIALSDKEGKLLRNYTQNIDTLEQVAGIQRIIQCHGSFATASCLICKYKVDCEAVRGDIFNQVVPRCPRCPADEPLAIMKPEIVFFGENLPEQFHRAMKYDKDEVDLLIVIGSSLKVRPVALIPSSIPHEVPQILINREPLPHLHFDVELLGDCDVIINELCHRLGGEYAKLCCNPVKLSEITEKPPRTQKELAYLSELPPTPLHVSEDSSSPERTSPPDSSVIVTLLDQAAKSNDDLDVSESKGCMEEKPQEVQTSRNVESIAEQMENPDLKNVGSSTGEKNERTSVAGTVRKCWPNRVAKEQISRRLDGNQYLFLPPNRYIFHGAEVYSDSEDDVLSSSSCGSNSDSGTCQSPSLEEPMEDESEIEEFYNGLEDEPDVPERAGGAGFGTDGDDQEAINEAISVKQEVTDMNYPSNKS
Particulars: cited from earlier work.

Series [4] has as its target T1, SIRT2. Particulars: 100 μM; cited from earlier work.
Series [5] deals with HCMV. Nature of the series: Yield of infectious HCMV from drug-treated infected MRC5 fibroblasts. It is filed as cell-based, human cytomegalovirus. Particulars: for reduction of the yield of infectious HCMV by a factor of: MRC5, 10% fetal calf serum, added 4 hours after infection.
For series [6], the target named is T3, SIRT1. Particulars: cited from earlier work. This is another data set of the same source.
Series [7] has as its system Influenza A (WSN/33/A, PR8). Type of series: cell-based, influenza A virus.
The subject of series [8] is HCMV. It is filed as cell-based, human cytomegalovirus.
The target of another series is T4, SIRT3 (Homo sapiens, UniProt Q9NTG7).
T4 sequence (Q9NTG7 1-399): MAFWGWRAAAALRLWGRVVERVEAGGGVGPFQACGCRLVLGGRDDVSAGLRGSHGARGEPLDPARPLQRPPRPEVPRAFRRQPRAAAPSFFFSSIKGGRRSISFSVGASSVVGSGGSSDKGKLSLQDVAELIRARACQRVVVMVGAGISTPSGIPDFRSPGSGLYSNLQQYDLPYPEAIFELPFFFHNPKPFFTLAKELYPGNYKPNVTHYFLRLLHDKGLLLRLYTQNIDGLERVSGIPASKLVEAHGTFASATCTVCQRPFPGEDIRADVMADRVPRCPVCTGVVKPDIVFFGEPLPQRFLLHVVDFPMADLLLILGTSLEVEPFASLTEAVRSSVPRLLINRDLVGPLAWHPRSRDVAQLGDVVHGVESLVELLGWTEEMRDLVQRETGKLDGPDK
The settings on record: cited from earlier work.

Series [9] deals with T3, SIRT1. The settings on record: cited from earlier work. This is another data set of the same source.
In series [10] the target is T1, SIRT2. The settings on record: cited from earlier work. The source holds these as a separate data set.
The conditions of series [11]: mice; cited from earlier work.
Series [12] deals with Burkitt lymphoma xenografts. Particulars: mouse, in vivo; cited from earlier work.

Sequence of Hst2 (P53686 whole entry): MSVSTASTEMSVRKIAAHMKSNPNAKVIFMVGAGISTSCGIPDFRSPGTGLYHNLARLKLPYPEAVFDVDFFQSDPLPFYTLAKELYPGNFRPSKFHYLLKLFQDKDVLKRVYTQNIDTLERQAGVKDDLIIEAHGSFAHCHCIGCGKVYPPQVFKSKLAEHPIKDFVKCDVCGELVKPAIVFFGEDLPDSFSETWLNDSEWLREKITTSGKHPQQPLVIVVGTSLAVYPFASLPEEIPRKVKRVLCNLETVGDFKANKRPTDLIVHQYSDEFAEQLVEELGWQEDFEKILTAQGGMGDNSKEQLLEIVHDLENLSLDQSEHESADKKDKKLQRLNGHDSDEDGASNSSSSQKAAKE
Sequence of Sirt6 (Q8N6T7 whole entry): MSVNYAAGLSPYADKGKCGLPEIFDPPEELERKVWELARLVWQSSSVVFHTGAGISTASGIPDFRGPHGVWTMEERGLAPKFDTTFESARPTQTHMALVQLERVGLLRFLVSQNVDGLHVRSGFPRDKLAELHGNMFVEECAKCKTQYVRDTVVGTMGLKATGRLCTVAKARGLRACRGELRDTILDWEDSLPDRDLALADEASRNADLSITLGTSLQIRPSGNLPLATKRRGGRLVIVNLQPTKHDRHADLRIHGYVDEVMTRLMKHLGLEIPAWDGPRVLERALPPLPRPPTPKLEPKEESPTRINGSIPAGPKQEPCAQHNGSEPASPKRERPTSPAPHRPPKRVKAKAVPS

`Nc1c(S(=O)(=O)c2ccccc2)c2nc3ccccc3nc2n1-c1ccc(F)cc1` [CAY10602]: the “suppression of TNFα release, extent relative to resveratrol” value in series [1] is recorded as 10 fold. In addition, the pUL99 expression result in the series on HCMV pUL99 (25 μM) is listed as “almost completely inhibited”.
In the case of `CN1CC(C(=O)NC2(C)OC3(O)C4CCCN4C(=O)C(Cc4ccccc4)N3C2=O)C=C2c3cccc4[nH]cc(c34)CC21` (stereo not shown) [CSC21], the Sirt2 effect result on SIRT2 [2] is “inhibition”. For the same compound, the Sirt6 effect result on Sirt6 was “inhibition”. For the same compound, on Sirt5, the Sirt5 effect result is on record as “inhibition”.
Take `O=S(=O)(c1cccc(C(F)(F)F)c1)N1c2ccccc2-n2cccc2C1c1cccnc1` (stereo not shown) [CSC38]: the Sirt2 effect entry on SIRT2 [2] is listed as “inhibition”. Moreover, the Sirt6 effect result at Sirt6 was “activation”. Moreover, the Sirt5 effect result on Sirt5 was “activation”.
As to `Cc1ccc2[nH]c3c(c2c1)CCCC3C(N)=O` (stereo not shown) [Indole 2], the IC50 (in general, the concentration needed to halve the response being measured) at Hst2 is 14.5 ± 0.6 µM; on SIRT1 [3] it was 0.64 ± 0.06 µM.
For the compound `Oc1ccc(C=Cc2cc(O)cc(O)c2)cc1` [Resveratrol], the “activation of SIRT2” value at SIRT2 [4] was “does not activate”. The “reduction of the yield of infectious HCMV by a factor of” value is recorded as > 18 fold in the series on HCMV [5] (50 μM) and > 100 fold in the series on HCMV [5] (100 μM). In addition, the “increase of SIRT1 activity” value at SIRT1 [6] (46 μM) is given as 1.5 fold; on SIRT1 [6] (100 μM) it was 13 fold. Besides, the “EC1.5: The concentration to activate 1.5-fold” value at SIRT1 [6] is 46 µM. For the same compound, in the series on HCMV pUL99 (HCMV infected MRC5 cells, added 4 hours after infection, data not shown), the “cytopathic effect of HCMV” value is on record as “inhibited”. Also, the “expression of late viral pUL99” value in the series on HCMV pUL99 (dose dependent, data not shown) is recorded as “substantially reduced”.
As for `CC(C(=O)Nc1cccc(/N=C/c2c(O)ccc3ccccc23)c1)c1ccccc1` (stereo not shown) [Salermide], in the series with HCMV [5] (FIG. 5), the “production of infectious HCMV” value is given as “blocked”. Besides, the “production of infectious Influenza A progeny” value in series [7] is on record as “inhibited”. For the same compound, in the series on HCMV [8], the “inhibition of HCMV production by a factor of” value is given as “about 5” and the “inhibition of the production of HCMV progeny by a factor of” value is listed as ~80.
In the case of `CC(C)CCCCCCCCC[C@@H]1CC(=O)NC(CCC(=O)O)C(=O)N[C@@H](CC(C)C)C(=O)N[C@H](CC(C)C)C(=O)N[C@@H](C(C)C)C(=O)N[C@@H](CC(=O)O)C(=O)N[C@H](CC(C)C)C(=O)N[C@@H](CC(C)C)C(=O)O1` (stereo partly drawn) [Surfactin, surfactin] (HELM PEPTIDE1{[O=C(O)CCC(N[*:1])C(=O)[*:2]].L.[dL].V.D.[dL].L}|CHEM1{[CC(C)CCCCCCCCC[C@H](CC(=O)[*:1])O[*:2]]}$PEPTIDE1,CHEM1,1:R1-1:R1|PEPTIDE1,CHEM1,7:R2-1:R2$$$V2.0), the IC50 at Hst2 was > 700 µM; on SIRT1 [3] it was > 600 µM.
Take `CC(=O)Nc1ccc(NC(=S)NC(=O)c2ccc(C(C)(C)C)cc2)cc1` [Tenovin 1]: the IC50 at SIRT3 is 67 µM; at SIRT1 [9] it was 21 µM; on SIRT2 [10], 10 µM.
Consider Cambinol, for which the virus yield with HCMV [5] (50 μM, 96 h after infection, limit of detection) is given as < 10^2 IU/ml. The IC50 on Hst2 was > 1000 µM. In series [7], the “inhibition of influenza A in combination with oseltamivir” value is on record as “cooperated with oseltamivir” and the “production of infectious Influenza A progeny” value is given as “inhibited”. The tolerability entry in [11] was “well-tolerated”. Besides, the pUL99 accumulation result in the series on HCMV pUL99 (50 μM, data not shown) is reported as “substantial block”. Also, the Burkitt lymphoma xenografts entry in series [12] is recorded as “inhibits”.
